Source: publication PMC8286840, “Identifying SARS-CoV-2 antiviral compounds by screening for small molecule inhibitors of Nsp3 papain-like protease” (Biochemical Journal, 2021)
Counter-ions that a name gives are not always drawn. Like-named read-outs stand apart in the source and are kept apart here.

Key:
[1] = biological target: T1, SARS-CoV-2 PLpro (nsp3 1564–1878) (Severe acute respiratory syndrome coronavirus 2, UniProt P0DTD1); test: biochemical; parameters: FRET-quenched peptide (Pro3) cleavage by PLpro, 10 min pre-incubation, slope over 20 min, normalised to no-compound control; conditions: low concentration screen, read-out: % of control remaining
[2] = biological target: T1, SARS-CoV-2 PLpro (nsp3 1564–1878); test: biochemical; parameters: FRET-quenched peptide (Pro3) cleavage by PLpro, 10 min pre-incubation, slope over 20 min, normalised to no-compound control; conditions: high concentration screen, read-out: % of control remaining

Structure (SMILES): CC[C@@H]1C(=O)OC[C@@H]1Cc1cncn1C [Pilocarpine (Hydrochloride)]
- remaining activity at 1.25 µM ([1]; Well no.=7627): 99.7%
- remaining activity at 3.75 µM ([2]; Well no.=7627): 96.7%

Structure (SMILES): CC[C@@H]1C(=O)OC[C@@H]1Cc1cncn1C [Pilocarpine nitrate]
- remaining activity at 1.25 µM ([1]; Well no.=1150): 96.8%
- remaining activity at 3.75 µM ([2]; Well no.=1150): 97%

Structure (SMILES): CC[C@@H]1C(=O)OC[C@@H]1Cc1cncn1C [Pilocarpine.HCl]
- remaining activity at 1.25 µM ([1]; Well no.=1793): 98.6%
- remaining activity at 1.25 µM ([1]; Well no.=3729): 101%
- remaining activity at 3.75 µM ([2]; Well no.=1793): 98.6%
- remaining activity at 3.75 µM ([2]; Well no.=3729): 105%

Structure (SMILES): C[C@@H]1C/C=C/C=C/C=C/C=C/[C@H](O[C@@H]2O[C@H](C)[C@@H](O)[C@H](N)[C@@H]2O)C[C@@H]2O[C@](O)(C[C@@H](O)C[C@H]3O[C@@H]3/C=C/C(=O)O1)C[C@H](O)[C@H]2C(=O)O [Pimaricin]
- remaining activity at 1.25 µM ([1]; Well no.=3703): 96.5%
- remaining activity at 3.75 µM ([2]; Well no.=3703): 102%

Structure (SMILES): CC(C)COc1ccc(CNC(=O)N(Cc2ccc(F)cc2)C2CCN(C)CC2)cc1 [Pimavanserin tartrate]
- remaining activity at 1.25 µM ([1]; Well no.=6989): 103%
- remaining activity at 3.75 µM ([2]; Well no.=6989): 102%

Structure (SMILES): CC(C)COc1ccc(CNC(=O)N(Cc2ccc(F)cc2)C2CCN(C)CC2)cc1 [Pimavanserin]
- remaining activity at 1.25 µM ([1]; Well no.=6521): 95%
- remaining activity at 3.75 µM ([2]; Well no.=6521): 95.9%

Structure (SMILES): CC[C@@H]1/C=C(\C)C[C@H](C)C[C@H](OC)[C@H]2O[C@@](O)(C(=O)C(=O)N3CCCC[C@H]3C(=O)O[C@H](/C(C)=C/[C@@H]3CC[C@H](Cl)[C@H](OC)C3)[C@H](C)[C@@H](O)CC1=O)[C@H](C)C[C@@H]2OC [Pimecrolimus]
- remaining activity at 1.25 µM ([1]; Well no.=8178): 93.5%
- remaining activity at 3.75 µM ([2]; Well no.=8178): 91.3%

Structure (SMILES): Cc1ccc(NC(=O)CCCCCC(=O)Nc2ccccc2N)cc1 [Pimelic Diphenylamide 106 (analog)]
- remaining activity at 1.25 µM ([1]; Well no.=8230): 104%
- remaining activity at 3.75 µM ([2]; Well no.=8230): 102%

Structure (SMILES): Cc1ccc(NC(=O)CCCCCC(=O)Nc2ccccc2N)cc1 [Pimelic Diphenylamide 106]
- remaining activity at 1.25 µM ([1]; Well no.=5991): 101%
- remaining activity at 3.75 µM ([2]; Well no.=5991): 99.4%

Structure (SMILES): O=C(O)CCCCCC(=O)O [Pimelic acid]
- remaining activity at 1.25 µM ([1]; Well no.=7115): 96.9%
- remaining activity at 3.75 µM ([2]; Well no.=7115): 99.2%

Structure (SMILES): COc1ccc(-c2nc3cc(C4=NNC(=O)CC4C)ccc3[nH]2)cc1 (stereo not drawn) [Pimobendan (Vetmedin)]
- remaining activity at 1.25 µM ([1]; Well no.=4957): 100%
- remaining activity at 3.75 µM ([2]; Well no.=4957): 103%

Structure (SMILES): O=c1[nH]c2ccccc2n1C1CCN(CCCC(c2ccc(F)cc2)c2ccc(F)cc2)CC1 [Pimozide]
- remaining activity at 1.25 µM ([1]; Well no.=1094): 93.3%
- remaining activity at 1.25 µM ([1]; Well no.=1595): 99.2%
- remaining activity at 3.75 µM ([2]; Well no.=1094): 95%
- remaining activity at 3.75 µM ([2]; Well no.=1595): 95.7%

Structure (SMILES): CC(N/C(=N\C#N)Nc1ccncc1)C(C)(C)C (stereo not drawn) [Pinacidil]
- remaining activity at 1.25 µM ([1]; Well no.=1503): 98.1%
- remaining activity at 1.25 µM ([1]; Well no.=1603): 103%
- remaining activity at 3.75 µM ([2]; Well no.=1503): 97.2%
- remaining activity at 3.75 µM ([2]; Well no.=1603): 98.9%

Structure (SMILES): O=C1C[C@@H](c2ccccc2)Oc2cc(O)cc(O)c21 [Pinocembrin]
- remaining activity at 1.25 µM ([1]; Well no.=3587): 99.6%
- remaining activity at 3.75 µM ([2]; Well no.=3587): 98.4%

Structure (SMILES): CCc1ccc(CCOc2ccc(CC3SC(=O)NC3=O)cc2)nc1 (stereo not drawn) [Pioglitazone]
- remaining activity at 1.25 µM ([1]; Well no.=1718): 98.7%
- remaining activity at 3.75 µM ([2]; Well no.=1718): 98%

Structure (SMILES): O=C(O)C1CCCCN1 (stereo not drawn) [Pipecolic acid]
- remaining activity at 1.25 µM ([1]; Well no.=6929): 103%
- remaining activity at 3.75 µM ([2]; Well no.=6929): 102%

Structure (SMILES): CCN1CCN(C(=O)N[C@@H](C(=O)N[C@@H]2C(=O)N3[C@@H]2SC(C)(C)[C@@H]3C(=O)O)c2ccccc2)C(=O)C1=O [Piperacillin (sodium)]
- remaining activity at 1.25 µM ([1]; Well no.=8072): 96.2%
- remaining activity at 3.75 µM ([2]; Well no.=8072): 91.7%

Structure (SMILES): CCN1CCN(C(=O)N[C@@H](C(=O)N[C@@H]2C(=O)N3[C@@H]2SC(C)(C)[C@@H]3C(=O)O)c2ccccc2)C(=O)C1=O [Piperacillin]
- remaining activity at 1.25 µM ([1]; Well no.=2107): 104%
- remaining activity at 3.75 µM ([2]; Well no.=2107): 104%

Structure (SMILES): O=S(=O)(O)C1CCNCC1 [Piperidine-4-sulphonic acid]
- remaining activity at 1.25 µM ([1]; Well no.=1449): 99.5%
- remaining activity at 3.75 µM ([2]; Well no.=1449): 94.6%

Structure (SMILES): O=C(/C=C/C=C/c1ccc2c(c1)OCO2)N1CCCCC1 [Piperine]
- remaining activity at 1.25 µM ([1]; Well no.=3110): 92.8%
- remaining activity at 1.25 µM ([1]; Well no.=8242): 99.3%
- remaining activity at 3.75 µM ([2]; Well no.=3110): 94.5%
- remaining activity at 3.75 µM ([2]; Well no.=8242): 96.3%

Structure (SMILES): c1ccc2c(c1)OCC(CN1CCCCC1)O2 (stereo not drawn) [Piperoxan (hydrochloride)]
- remaining activity at 1.25 µM ([1]; Well no.=7383): 106%
- remaining activity at 3.75 µM ([2]; Well no.=7383): 105%

Structure (SMILES): NC(=O)CN1CCCC1=O [Piracetam]
- remaining activity at 1.25 µM ([1]; Well no.=1100): 96.7%
- remaining activity at 3.75 µM ([2]; Well no.=1100): 97.5%

Structure (SMILES): Cc1nc2ccccn2c(=O)c1CCN1CCC(C(=O)c2ccc(F)cc2)CC1 [Pirenperone]
- remaining activity at 1.25 µM ([1]; Well no.=1359): 101%
- remaining activity at 3.75 µM ([2]; Well no.=1359): 102%

Structure (SMILES): Cc1ccc(=O)n(-c2ccccc2)c1 [Pirfenidone]
- remaining activity at 1.25 µM ([1]; Well no.=904): 107%
- remaining activity at 3.75 µM ([2]; Well no.=904): 109%

Structure (SMILES): c1cnc(N2CCN(Cc3ccc4c(c3)OCO4)CC2)nc1 [Piribedil maleate]
- remaining activity at 1.25 µM ([1]; Well no.=1163): 96.1%
- remaining activity at 3.75 µM ([2]; Well no.=1163): 96.2%

Structure (SMILES): c1cnc(N2CCN(Cc3ccc4c(c3)OCO4)CC2)nc1 [Piribedil.2HCl]
- remaining activity at 1.25 µM ([1]; Well no.=1841): 96.6%
- remaining activity at 3.75 µM ([2]; Well no.=1841): 95.4%

Structure (SMILES): CN1C(C(=O)Nc2ccccn2)=C(O)c2ccccc2S1(=O)=O [Piroxicam]
- remaining activity at 1.25 µM ([1]; Well no.=862): 99.8%
- remaining activity at 1.25 µM ([1]; Well no.=1566): 98.4%
- remaining activity at 3.75 µM ([2]; Well no.=862): 103%
- remaining activity at 3.75 µM ([2]; Well no.=1566): 99.8%

Structure (SMILES): O=C(O)C[C@H](O)C[C@H](O)/C=C/c1c(C2CC2)nc2ccccc2c1-c1ccc(F)cc1 [Pitavastatin Calcium]
- remaining activity at 1.25 µM ([1]; Well no.=8334): 97.4%
- remaining activity at 3.75 µM ([2]; Well no.=8334): 95.7%

Structure (SMILES): Clc1ccc(CCCOCCCN2CCCCC2)cc1 [Pitolisant (hydrochloride)]
- remaining activity at 1.25 µM ([1]; Well no.=6225): 100%
- remaining activity at 3.75 µM ([2]; Well no.=6225): 101%

Structure (SMILES): CC(C)(C)C(=O)OCOC(=O)[C@@H]1N2C(=O)[C@@H](/N=C/N3CCCCCC3)[C@H]2SC1(C)C [Pivmecillinam]
- remaining activity at 1.25 µM ([1]; Well no.=5414): 93.3%
- remaining activity at 3.75 µM ([2]; Well no.=5414): 98.6%

Structure (SMILES): CN1CCC(=C2c3ccccc3CCc3sccc32)CC1 [Pizotifen]
- remaining activity at 1.25 µM ([1]; Well no.=7531): 103%
- remaining activity at 3.75 µM ([2]; Well no.=7531): 91.1%

Structure (SMILES): c1cc(CN2CCCNCCNCCCNCC2)ccc1CN1CCCNCCNCCCNCC1 [Plerixafor (octahydrochloride)]
- remaining activity at 1.25 µM ([1]; Well no.=8020): 95.7%
- remaining activity at 1.25 µM ([1]; Well no.=8097): 104%
- remaining activity at 1.25 µM ([1]; Well no.=8749): 100%
- remaining activity at 3.75 µM ([2]; Well no.=8020): 94.1%
- remaining activity at 3.75 µM ([2]; Well no.=8097): 101%
- remaining activity at 3.75 µM ([2]; Well no.=8749): 100%
